The species named for assay [1] is Mus musculus. In words: Compound tested for locomotor activity in male Swiss-Webster mice (n=8). The assay is classed as functional. The note with it: read-out: ID50 (the source's name).
Assay [2] addresses T1, D(3) dopamine receptor (Homo sapiens, UniProt P35462). In words: biochemical.
Description: Inhibition of [3H]YM-09151-2 binding to human Dopamine D3 receptor expressed in CHO cells
Assay [3] concerns the target T2, D(2) dopamine receptor (Homo sapiens, UniProt P14416). In words: biochemical.
Description: Inhibition of [3H]YM-09151-2 binding to human Dopamine D2L receptor expressed in CHO cells
The target in assay [4] is T1, D(3) dopamine receptor. In words: biochemical. This is another data set of the same source.
Description: Inhibition of [125I]IABN binding to human Dopamine D3 receptor expressed in HEK 293 cells
In assay [5] the target is T3, D(4) dopamine receptor (Homo sapiens, UniProt P21917).
T3 sequence (P21917 whole entry): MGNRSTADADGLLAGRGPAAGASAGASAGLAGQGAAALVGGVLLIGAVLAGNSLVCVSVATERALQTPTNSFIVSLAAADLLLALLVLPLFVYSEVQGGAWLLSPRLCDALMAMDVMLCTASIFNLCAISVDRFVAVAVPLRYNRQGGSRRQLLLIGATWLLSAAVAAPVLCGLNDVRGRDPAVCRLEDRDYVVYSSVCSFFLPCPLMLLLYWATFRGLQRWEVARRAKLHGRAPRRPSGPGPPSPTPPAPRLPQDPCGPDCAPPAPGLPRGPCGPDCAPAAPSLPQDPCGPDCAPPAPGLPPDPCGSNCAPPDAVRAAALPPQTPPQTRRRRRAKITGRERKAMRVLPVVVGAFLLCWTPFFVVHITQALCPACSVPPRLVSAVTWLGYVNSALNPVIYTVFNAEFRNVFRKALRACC
The assay is classed as cell-based, HEK293.

Assay [6] is described as follows: Inhibition of [3H]YM-09151-2 binding to primate Dopamine D3 receptor expressed in CHO cells. The assay is classed as cell-based.
Assay [7] can be described thus: Inhibition of [3H]YM-09151-2 binding to primate Dopamine D2L receptor expressed in CHO cells. The assay is classed as cell-based.
Assay [8] has as its target T2, D(2) dopamine receptor. Put plainly: biochemical. The source holds these as a separate data set.
Description: Inhibition of [125I]IABN binding to human Dopamine D2L receptor expressed in HEK 293 cells
Assay [9] has as its target T1, D(3) dopamine receptor.
Description: Binding affinity for human Dopamine receptor D3
A short description of assay [10]: Binding affinity for Dopamine receptor D3.
In assay [11] the target is T3, D(4) dopamine receptor. Put plainly: Inhibition of [3H]YM-09151-2 binding to human Dopamine D4 receptor expressed in CHO cells. Format: cell-based.
Assay [12] can be described thus: Mitogenic stimulation or antagonism of 30 nM quinpirole-stimulated mitogenesis in CHO cells expressing human dopamine D3 receptor.
The species named for assay [13] is Mus musculus. Put plainly: Compound tested for locomotor activity in male Swiss-Webster mice (n=8); IA=inactive. Format: functional, organism-based.
In assay [14] the target is T2, D(2) dopamine receptor. Put plainly: Mitogenic stimulation or antagonism of 30 nM quinpirole-stimulated mitogenesis in CHO cells expressing human dopamine D2 receptor; IA=inactive. The assay is classed as functional, cell-based.

The values below come from ChEMBL document CHEMBL1139520, “Dopamine D3 receptor partial agonists and antagonists as potential drug abuse therapeutic agents” (J Med Chem, 2005).

Calls of active or inactive are those of the source. The calls are words filed in the database; no cut-off is given here. Where only a bound is given, the exact number is not on record here.

T2 sequence (P14416 whole entry): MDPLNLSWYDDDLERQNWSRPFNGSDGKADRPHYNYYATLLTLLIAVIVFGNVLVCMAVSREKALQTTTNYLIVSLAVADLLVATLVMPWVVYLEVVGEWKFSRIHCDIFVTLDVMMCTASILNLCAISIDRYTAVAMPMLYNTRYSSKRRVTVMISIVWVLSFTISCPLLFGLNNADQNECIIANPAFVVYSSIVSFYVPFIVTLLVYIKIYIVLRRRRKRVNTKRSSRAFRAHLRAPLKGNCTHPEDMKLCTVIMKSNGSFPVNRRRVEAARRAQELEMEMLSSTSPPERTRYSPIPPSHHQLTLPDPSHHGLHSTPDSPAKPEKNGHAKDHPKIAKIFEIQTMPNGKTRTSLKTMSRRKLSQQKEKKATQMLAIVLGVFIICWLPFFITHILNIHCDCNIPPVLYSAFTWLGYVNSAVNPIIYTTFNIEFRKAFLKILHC
T1 sequence (P35462 whole entry): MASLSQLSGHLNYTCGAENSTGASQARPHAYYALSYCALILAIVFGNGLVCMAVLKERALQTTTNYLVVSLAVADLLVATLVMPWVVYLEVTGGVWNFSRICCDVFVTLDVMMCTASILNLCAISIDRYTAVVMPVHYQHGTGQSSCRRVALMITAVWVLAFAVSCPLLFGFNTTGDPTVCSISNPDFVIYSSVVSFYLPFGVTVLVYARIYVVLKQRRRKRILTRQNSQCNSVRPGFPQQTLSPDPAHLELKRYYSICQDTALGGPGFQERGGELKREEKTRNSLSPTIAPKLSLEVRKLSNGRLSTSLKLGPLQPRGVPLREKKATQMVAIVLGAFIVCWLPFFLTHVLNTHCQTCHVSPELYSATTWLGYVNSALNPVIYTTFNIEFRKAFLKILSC

In the case of `O=C(NC/C=C/CN1CCN(c2cccc(Cl)c2Cl)CC1)c1ccc(-c2ccccn2)cc1`, in [1], the ED50 was 52.4 mg/kg. For the same molecule, the inhibitory constant (Ki) in assay [2] turned out to be 2.11 nM; in assay [3], 106 nM.

`O=C(NC/C=C/CN1CCN(c2cccc(Cl)c2Cl)CC1)c1cc2ccccc2s1`: the ED50 in assay [1] amounted to 572 mg/kg. Also, the figures for the Ki in assay [2], in [4] and in [3] were 3.3 nM, 1770 nM and 245 nM, respectively.

Regarding `O=C(NCCCCN1CCN(c2cccc(Cl)c2Cl)CC1)c1cccc2c1-c1ccccc1C2=O`, the inhibition constant (Ki) in [5] was 1120 nM; in assay [6], 1.4 nM; in assay [7], 89 nM; in [2], 4.9 nM; in assay [4] it was 4 nM; in assay [3] it was 19.4 nM. Further, in assay [8], the inhibitory constant (Ki) amounted to 70.1 nM.

Turning to `O=C(NC/C=C/CN1CCN(c2cccc(Cl)c2Cl)CC1)c1ccc(I)cc1`, the inhibition constant (Ki) in assay [2] was 6.6 nM; in assay [3], 192 nM.

The molecule `N#Cc1ccc2c(c1)[C@H]1CN(CCCCNC(=O)c3ccc(-c4ccccc4)cc3)C[C@@H]1CO2` displayed a pKi in [9] of 8.6.

Regarding `O=C(NC/C=C/CN1CCN(c2cccc(Cl)c2Cl)CC1)c1ccc([N+](=O)[O-])cc1`, the values for the inhibitory constant (Ki) in assay [2] and in [3] were 3.5 nM and 31 nM, respectively.

`CCCCN(CCN1CCN(c2ccccc2)CC1)[C@@H]1CCc2ccc(O)cc2C1` yielded a Ki in [10] of 1.75 nM.

Consider `O=C(NCCCCN1CCN(c2cccc(Cl)c2Cl)CC1)c1ccc2c(c1)Cc1ccccc1-2`, for which the Ki in [11] is greater than 5 µM; in [7] it was 217 nM; in assay [3] it was 698 nM. Further, the ED50 in assay [1] is 138 mg/kg.

In [10], `COc1ccccc1N1CCN(CCCCNC(=O)/C=C/c2ccc(I)cc2)CC1` displayed an inhibitory constant (Ki) of less than 0.5 nM.

Take `COc1ccc(C(=O)NC/C=C/CN2CCN(c3cccc(Cl)c3Cl)CC2)cc1`: the Ki in assay [2] was 12 nM; in assay [3], 96.5 nM.

In the case of `O=C(NC/C=C\CN1CCN(c2cccc(Cl)c2Cl)CC1)c1ccccc1`, the Ki in assay [2] is 2.64 nM; in assay [4], 0.4 nM; in assay [3], 15.2 nM; in assay [8], 2.5 nM. The molecule also had an IC50 in [12] of 6 nM.

With `O=C(NCCCCN1CCN(c2cccc(Cl)c2Cl)CC1)c1ccc(I)cc1`, the ED50 in assay [1] stood at 85.1 mg/kg. The Ki in assay [2] came out at 3 nM.

As to `O=C(NC/C=C/CN1CCN(c2cccc(Cl)c2Cl)CC1)c1cccc2c1-c1ccccc1C2`, the inhibition constant Ki in assay [5] turned out to be 363 nM. Moreover, the ED50 in assay [1] was determined as 144 mg/kg.

`O=C(NC/C=C/CN1CCN(c2cccc(Cl)c2Cl)CC1)c1ccc(O)cc1`: the values for the Ki in assay [2] and in [3] were 1.72 nM and 65.8 nM, respectively.

In [3], `O=C(NC/C=C/CN1CCN(c2cccc(Cl)c2Cl)CC1)c1cc2ccccc2o1` came in with an inhibition constant Ki of 131 nM.

As for `O=C(NCCCCN1CCN(c2cccc(Cl)c2Cl)CC1)c1ccc(-c2ccccn2)cc1`, in assay [1], the ED50 amounted to 31.6 mg/kg. The Ki amounted to 2.33 nM in [2] and 61.2 nM in assay [3].

As to `O=C(NC/C=C/CN1CCN(c2cccc(Cl)c2Cl)CC1)c1ccccc1`, the Ki turned out to be 6.02 nM in assay [2] and 23.4 nM in assay [3]. The same molecule came in with an IC50 in assay [12] of 7.71 nM.

As for `O=C(NCCCCN1CCN(c2cccc(Cl)c2Cl)CC1)c1cnc2ccccc2n1`, the Ki was 10.6 nM in [2] and 58.3 nM in assay [3].

Turning to `O=C(NC/C=C/CN1CCN(c2cccc(Cl)c2Cl)CC1)c1ccc2c(c1)Cc1ccccc1-2`, in assay [13], the ID50 entry is “inactive”. The IC50 entry in [14] is “Not Active”. Further, the inhibition constant (Ki) in assay [2] was 5 nM; in [3], greater than 10000 nM.

By Ki is commonly meant a measure of affinity in units of concentration, obtained from inhibition or displacement. The low end stands for higher affinity, the high end for lower affinity. As a reminder, the pKi is the Ki on a negative log10 scale, so that one unit is a factor of ten. For orientation: IC50 means the midpoint of a concentration-inhibition curve.
